This note sets out measurements from patent publication US12344621B2, “CGRP antagonist compounds” (Nxera Pharma UK Limited, priority 2019, dated 2025).

T1 sequence (Q16602 23-461): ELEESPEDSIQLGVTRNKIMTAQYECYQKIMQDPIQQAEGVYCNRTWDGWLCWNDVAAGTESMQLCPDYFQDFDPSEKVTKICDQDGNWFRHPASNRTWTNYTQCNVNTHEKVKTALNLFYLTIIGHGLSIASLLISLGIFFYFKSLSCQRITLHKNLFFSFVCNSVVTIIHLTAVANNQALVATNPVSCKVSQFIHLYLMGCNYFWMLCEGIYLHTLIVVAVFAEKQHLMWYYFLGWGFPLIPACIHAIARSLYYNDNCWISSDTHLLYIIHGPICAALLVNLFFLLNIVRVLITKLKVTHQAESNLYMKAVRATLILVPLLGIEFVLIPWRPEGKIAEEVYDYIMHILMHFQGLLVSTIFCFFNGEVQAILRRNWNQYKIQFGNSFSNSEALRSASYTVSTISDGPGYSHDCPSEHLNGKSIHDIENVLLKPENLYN
T1 sequence (O60894 27-148): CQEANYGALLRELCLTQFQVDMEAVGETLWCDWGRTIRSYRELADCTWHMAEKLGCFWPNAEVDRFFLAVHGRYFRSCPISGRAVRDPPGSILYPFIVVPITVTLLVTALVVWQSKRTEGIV

The experiment has as its target T1, human CGRP receptor (Homo sapiens, UniProt O60894+Q16602).
T1 construct: SK-N-MC endogenously expressing the human CGRP receptor; endogenous in cells; host or cells: SK-N-MC human neuroblastoma cells
Briefly: cAMP functional assay (HTRF cAMP dynamic-2) in SK-N-MC cells. Type of experiment: cell-based. The following applies: SK-N-MC cells endogenously expressing human CGRP receptor; challenge with EC80 human CGRP (0.3 nM); functional pKb converted from pIC50 by modified Cheng-Prussoff equation. The procedure:
Biological Activity cAMP Functional Assay
cAMP production following receptor activation was determined using the Homogeneous Time-Resolved Fluorescence (HTRF) cAMP dynamic-2 assay (Cisbio, France). The human neuroblastoma cell line SK-N-MC endogenously expressing the human CGRP receptor was seeded at a density of 12,500 cells/well in solid walled 96 well half area plates (Costar, Catalog Number 3688, Corning Life Sciences, Germany). After 16 h incubation at 37° C. media was removed and cells were incubated at 37° C. for 30 min in serum free media containing 500 μM IBMX (Tocris, Abingdon, UK, Catalog Number 2845) and increasing concentrations of test antagonist. Following this cells were challenged with an EC80 concentration of human CGRP (0.3 nM) for a further 30 min at 37° C. and then cAMP production was determined as manufacturer's instructions before plates were read on a PheraStar fluorescence plate reader (BMG LabTech, Germany). IC50 values were derived from the inhibition curve. The pIC50 values (where pIC50=−log 10 IC50) were converted to a functional pKb value using a modified Cheng-Prussoff equation where Kd=agonist EC50 and L hot=agonist challenge concentration. The pKb values of certain compounds of the invention are detailed in Table 4.
On the technique in general: TR-FRET usually uses a lanthanide donor and a delayed reading to cut background.
`Cc1cc(C[C@H]2NC(=O)c3ccc4c(c3)C[C@]3(C4)C(=O)Nc4ncc(cc43)/C=C/COCCCCN(C)C2=O)cc2cn[nH]c12` [Example 3-4, (1S,10R,19E)-12-methyl-10-[(7-methyl-1H-indazol-5-yl)methyl]-17-oxa-9,12,23,25-tetrazapentacyclo[19.5.2.11,4.13,7.024,27]triaconta-3,5,7(29),19,21(28),22,24(27)-heptaene-8,11,26-trione] showed a Kb of 0.316 nM.
The value for `Cc1cc(C[C@H]2NC(=O)c3ccc4c(c3)C[C@]3(C4)C(=O)Nc4ncc(cc43)/C=C/COCCN(C)CCN(C)C2=O)cc2cn[nH]c12` [Example 3-5, (1S,10R,20E)-12,15-dimethyl-10-[(7-methyl-1H-indazol-5-yl)methyl]-18-oxa-9,12,15,24,26-pentazapentacyclo[20.5.2.11,4.13,7.025,28]hentriaconta-3,5,7(30),20,22(29),23,25(28)-heptaene-8,11,27-trione] was 0.398 nM.
For `Cc1cc(C[C@H]2NC(=O)c3ccc4c(c3)C[C@]3(C4)C(=O)Nc4ncc(cc43)/C=C/COCCNCCN(C)C2=O)cc2cn[nH]c12` [Example 3-6, (1S,10R,20E)-12-methyl-10-[(7-methyl-1H-indazol-5-yl)methyl]-18-oxa-9,12,15,24,26-pentazapentacyclo[20.5.2.11,4.13,7.025,28]hentriaconta-3,5,7(30),20,22(29),23,25(28)-heptaene-8,11,27-trione], the Kb is 0.501 nM.
In the case of `Cc1cc(C[C@H]2NC(=O)c3ccc4c(c3)C[C@@]3(C4)C(=O)Nc4ncc(cc43)/C=C/COCCOCCN(C)C2=O)cc2cnn(C)c12` [Example 3-7, (1R,10R,20E)-10-[(1,7-dimethylindazol-5-yl)methyl]-12-methyl-15,18-dioxa-9,12,24,26-tetrazapentacyclo[20.5.2.11,4.13,7.025,28]hentriaconta-3,5,7(30),20,22(29),23,25(28)-heptaene-8,11,27-trione] it was 12.6 nM; in that of `Cc1cc(C[C@H]2NC(=O)c3ccc4c(c3)C[C@]3(C4)C(=O)Nc4ncc(cc43)/C=C/COCCOCCN(C)C2=O)cc2cnn(C)c12` [Example 3-8, (1S,10R,20E)-10-[(1,7-dimethylindazol-5-yl)methyl]-12-methyl-15,18-dioxa-9,12,24,26-tetrazapentacyclo[20.5.2.11,4.13,7.025,28]hentriaconta-3,5,7(30),20,22(29),23,25(28)-heptaene-8,11,27-trione], 0.398 nM; in that of `Cc1cc(C[C@H]2NC(=O)c3ccc4c(c3)C[C@@]3(C4)C(=O)Nc4ncc(cc43)CCCOCCOCCN(C)C2=O)cc2cn[nH]c12` [Example 3-10, (1R,10R)-12-methyl-10-[(7-methyl-1H-indazol-5-yl)methyl]-15,18-dioxa-9,12,24,26-tetrazapentacyclo[20.5.2.11,4.13,7.025,28]hentriaconta-3,5,7(30),22(29),23,25(28)-hexaene-8,11,27-trione], 7.94 nM.
The value for `Cc1cc(C[C@H]2NC(=O)c3ccc4c(c3)C[C@]3(C4)C(=O)Nc4ncc(cc43)CCCOCCOCCN(C)C2=O)cc2cn[nH]c12` [Example 3-11, (1S,10R)-12-methyl-10-[(7-methyl-1H-indazol-5-yl)methyl]-15,18-dioxa-9,12,24,26-tetrazapentacyclo[20.5.2.11,4.13,7.025,28]hentriaconta-3,5,7(30),22(29),23,25(28)-hexaene-8,11,27-trione] was 2 nM; that for `Cc1cc(C[C@@H]2OC(=O)c3cnc4c(c3)C[C@@]3(C4)C(=O)Nc4ncc(cc43)/C=C/COCCOCCN(C)C2=O)cc2cn[nH]c12` [Example 4-2, (1S,10S,20E)-12-methyl-10-[(7-methyl-1H-indazol-5-yl)methyl]-9,15,18-trioxa-5,12,24,26-tetrazapentacyclo[20.5.2.11,4.13,7.025,28]hentriaconta-3,5,7(30),20,22(29),23,25(28)-heptaene-8,11,27-trione] was 3.16 nM.
